One series relates to primary leukemic cells. Briefly: MTT cytotoxicity against primary leukemic cells. Particulars: cells from 5 leukemia patients, FIGS. 4A-4E.
In series [1] the test system is BT20. Briefly: cells. Particulars: Homo sapiens, BT-20, read-out: BT20 IC50.
The subject of series [2] is NALM-6. Briefly: cells. The following applies: Homo sapiens, NALM-6, read-out: NALM-6 IC50. The format is cell-based.
Series [3] has as its system MOLT-3. Briefly: cells. The format is cell-based. The following applies: Homo sapiens, MOLT-3, read-out: MOLT-3 IC50.
In series [4] the test system is MOLT-3. Briefly: Anti-proliferative activity (colony counts), MOLT-3. The series is classed as cell-based, human. From the text:
(§1) The dose-responsive anti-proliferative activity of various organic arsenic acid substituted compounds against leukemic cell lines (NALM-6 and MOLT-3) is shown below in Table 3. FIGS. 3A-3F show dose response curves in ALL1, NALM-6, and MOLT-3 cells.

The next series deals with ALL1. Briefly: cells. The format is cell-based. The following applies: Homo sapiens, read-out: ALL1 IC50.
The subject of another series is RS4;11. Briefly: cells. The series is classed as cell-based. The following applies: Homo sapiens, RS4-11, read-out: RS4;11 IC50.
For series [5], the system named is NALM-6. Briefly: Anti-proliferative activity (colony counts), NALM-6. The series is classed as cell-based, human.
Text: as §1

The subject of series [6] is BT20.
The test system of series [7] is leukemic cell lines (NALM-6, MOLT-3, ALL1, RS4;11). Briefly: cells. The following applies: Homo sapiens, read-out: IC50 values in leukemic cell lines.
In another series the test system is NALM-6 cells. Briefly: MTT cytotoxicity over 1-4 days versus arsenic trioxide, NALM-6. The following applies: MTT, doses 0.07 μM to 5 μM.
Where [8] appears, read: MOLT-3, concentration 0.1 (mM as printed).
The mark [9] stands for this setting: MOLT-3, concentration 1 (mM as printed).
The mark [10] stands for this setting: MOLT-3, concentration 10 (mM as printed).
The mark [11] stands for this setting: MOLT-3, concentration 100 (mM as printed).
The mark [12] stands for this setting: NALM-6, concentration 0.1 (mM as printed).
Where [13] appears, read: NALM-6, concentration 1 (mM as printed).
Where [14] appears, read: NALM-6, concentration 10 (mM as printed).
[15] abbreviates: NALM-6, concentration 100 (mM as printed).

From US6482815B1 (priority 1999, dated 2002) come the findings set out here.

Read-outs that look alike come from different tables or passages of the source. Where only a bound is given, the exact number is not on record here.

In turn, `O=[As](O)(O)c1ccc(N=Nc2ccc(Nc3ncnc4[nH]cnc34)cc2)cc1` [WHI-P371, 6-[(4′-Aminophenylazo)-phenylarsenic acid]-purine] registered a melting point above 300 °C. Further, the “cytotoxic activity against primary leukemic cells (in words)” value (“cytotoxic activity” for short) in the series with primary leukemic cells is recorded as “susceptible to the cytotoxic effects”. Besides, the IC50 in the series with BT20 [1] was above 250 µM. Besides, in the series with NALM-6 [2], the IC50 came out at 15.2 µM. Also, in the series on MOLT-3 [3], the IC50 came to 21.6 µM. Also, the “Mean No. of Colonies/10^6 Cells” value in the series with MOLT-3 [4] (setting [8]) was 1098(1004, 1192) Colonies/10^6 Cells. For the same compound, in the series with MOLT-3 [4] (setting [9]), the “% Inhibition” value came to 27.9% and the “Mean No. of Colonies/10^6 Cells” value was 761(678, 844) Colonies/10^6 Cells. Also, in the series on MOLT-3 [4] (setting [10]), the “% Inhibition” value turned out to be 100% and the “Mean No. of Colonies/10^6 Cells” value is given as 0 Colonies/10^6 Cells. In the series on MOLT-3 [4] (setting [11]), the “% Inhibition” value is 100% and the “Mean No. of Colonies/10^6 Cells” value is 0 Colonies/10^6 Cells. In addition, the IC50 in the series on ALL1 was determined as 24.5 µM. Further, the IC50 with RS4;11 is 16.2 µM. Moreover, in the series with NALM-6 [5] (setting [12]), the “% Inhibition” value was determined as 8.8% and the “Mean No. of Colonies/10^6 Cells” value is on record as 3846(3696, 3996) Colonies/10^6 Cells. In addition, in the series on NALM-6 [5] (setting [13]), the “% Inhibition” value was found to be 76.4% and the “Mean No. of Colonies/10^6 Cells” value is 994(616, 1372) Colonies/10^6 Cells. Besides, in the series on NALM-6 [5] (setting [14]), the “% Inhibition” value came out at 100% and the “Mean No. of Colonies/10^6 Cells” value amounted to 0 Colonies/10^6 Cells. Further, in the series with NALM-6 [5] (setting [15]), the “% Inhibition” value is 100% and the “Mean No. of Colonies/10^6 Cells” value is listed as 0 Colonies/10^6 Cells.
`Nc1nc(N)nc(Nc2ccc(N=Nc3ccc([As](=O)(O)O)cc3)cc2)n1` [WHI-P374, 2,6-Diamino-4[(4′-aminophenylazo)-phenylarsenic acid]-1,3,5-triazine] had a melting point above 300 °C. For the same compound, the “cytotoxic against the breast cancer cell line BT20 (in words)” value in the series on BT20 [6] was “cytotoxic”. In addition, the IC50 in the series with BT20 [1] was determined as 13.9 µM. For the same compound, the IC50 with NALM-6 [2] was determined as 50.1 µM. Also, the IC50 with MOLT-3 [3] stood at 104 µM. Moreover, the IC50 with ALL1 came out at 55.8 µM. For the same compound, the IC50 in the series on RS4;11 stood at 53.6 µM.
For `CSc1nccc(Nc2ccc(N=Nc3ccc([As](=O)(O)O)cc3)cc2)n1` [WHI-P370, 2-Methylthio-4-[(4′-aminophenylazo)-phenylarsenic acid]pyrimidine], the melting point lay within 240 to 242 °C. In addition, in the series with primary leukemic cells, the “cytotoxic activity” value is “susceptible to the cytotoxic effects”. Besides, in the series with BT20 [6], the “cytotoxic against the breast cancer cell line BT20 (in words)” value was “cytotoxic”. For the same compound, the IC50 with BT20 [1] turned out to be 67.8 µM. Further, in the series with NALM-6 [2], the IC50 stood at 5.98 µM. For the same compound, the IC50 in the series on MOLT-3 [3] worked out at 2.9 µM. For the same compound, in the series with MOLT-3 [4] (setting [8]), the “% Inhibition” value came out at 6.1% and the “Mean No. of Colonies/10^6 Cells” value is given as 992(896, 1088) Colonies/10^6 Cells. Besides, in the series with MOLT-3 [4] (setting [9]), the “% Inhibition” value is recorded as 100% and the “Mean No. of Colonies/10^6 Cells” value is listed as 0 Colonies/10^6 Cells. In the series with MOLT-3 [4] (setting [10]), the “% Inhibition” value was 100% and the “Mean No. of Colonies/10^6 Cells” value is reported as 0 Colonies/10^6 Cells. Moreover, in the series on MOLT-3 [4] (setting [11]), the “% Inhibition” value is 100% and the “Mean No. of Colonies/10^6 Cells” value was determined as 0 Colonies/10^6 Cells. Moreover, in the series on ALL1, the IC50 came out at 1.9 µM. The IC50 in the series on RS4;11 amounted to 4.8 µM. Further, in the series on NALM-6 [5] (setting [12]), the “% Inhibition” value came out at 30.9% and the “Mean No. of Colonies/10^6 Cells” value is recorded as 2194(2860, 2968) Colonies/10^6 Cells. Also, in the series on NALM-6 [5] (setting [13]), the “% Inhibition” value is listed as 100% and the “Mean No. of Colonies/10^6 Cells” value was determined as 0 Colonies/10^6 Cells. Moreover, in the series with NALM-6 [5] (setting [14]), the “% Inhibition” value is on record as 100% and the “Mean No. of Colonies/10^6 Cells” value was 0 Colonies/10^6 Cells. Also, in the series with NALM-6 [5] (setting [15]), the “% Inhibition” value is 100% and the “Mean No. of Colonies/10^6 Cells” value was 0 Colonies/10^6 Cells.
`CSc1nccc(Nc2ccc([As](=O)(O)O)cc2)n1` [WHI-P380, 2-Methylthio-4-(4′-phenylarsenic acid)-aminopyrimidine] showed a melting point above 300 °C. The “cytotoxic activity” value in the series on primary leukemic cells is listed as “susceptible to the cytotoxic effects”. The IC50 in series [7] is 1.7 to 14.2 µM. In addition, the IC50 with BT20 [1] was found to be 239 µM. The IC50 in the series with NALM-6 [2] stood at 1.7 µM. The IC50 in the series on MOLT-3 [3] amounted to 14.2 µM. Further, in the series on MOLT-3 [4] (setting [8]), the “% Inhibition” value is recorded as 52.8% and the “Mean No. of Colonies/10^6 Cells” value is listed as 678(624, 732) Colonies/10^6 Cells. Also, in the series on MOLT-3 [4] (setting [9]), the “% Inhibition” value is listed as 69.7% and the “Mean No. of Colonies/10^6 Cells” value was 436(272, 600) Colonies/10^6 Cells. For the same compound, in the series with MOLT-3 [4] (setting [10]), the “% Inhibition” value amounted to 100% and the “Mean No. of Colonies/10^6 Cells” value is listed as 0 Colonies/10^6 Cells. Also, in the series on MOLT-3 [4] (setting [11]), the “% Inhibition” value is 100% and the “Mean No. of Colonies/10^6 Cells” value was 0 Colonies/10^6 Cells. Further, the IC50 in the series with ALL1 turned out to be 6.2 µM. Besides, the IC50 in the series with RS4;11 amounted to 10.2 µM. Also, in the series with NALM-6 [5] (setting [12]), the “% Inhibition” value stood at 66.9% and the “Mean No. of Colonies/10^6 Cells” value is on record as 400(116, 684) Colonies/10^6 Cells. Further, in the series with NALM-6 [5] (setting [13]), the “% Inhibition” value is given as 99.8% and the “Mean No. of Colonies/10^6 Cells” value is 2(3, 1) Colonies/10^6 Cells. In the series on NALM-6 [5] (setting [14]), the “% Inhibition” value turned out to be 100% and the “Mean No. of Colonies/10^6 Cells” value is 0 Colonies/10^6 Cells. Further, in the series with NALM-6 [5] (setting [15]), the “% Inhibition” value stood at 100% and the “Mean No. of Colonies/10^6 Cells” value is reported as 0 Colonies/10^6 Cells.
Turning to Arsenic trioxide [reference compound], the IC50 in the series on NALM-6 cells (read-out: Cytotoxicity against NALM-6 cells IC50, Day 1, 1 day of treatment) came to 3800 nM; with NALM-6 cells (read-out: Cytotoxicity against NALM-6 cells IC50, Day 2, 2 days of treatment), 3200 nM; in the series on NALM-6 cells (read-out: Cytotoxicity against NALM-6 cells IC50, Day 3, 3 days of treatment), 2000 nM; in the series on NALM-6 cells (read-out: Cytotoxicity against NALM-6 cells IC50, Day 4, 4 days of treatment) it was 1200 nM.
`COc1cc2ncnc(Nc3ccc([As](=O)(O)O)cc3)c2cc1OC` yielded a melting point above 300 °C.
Consider `COc1cc2ncnc(Nc3ccc(N=Nc4ccc([As](=O)(O)O)cc4)cc3)c2cc1OC` [WHI-P273, 4-[(6′,7′-Dimethoxyquinazoline-4′)-aminophenylazo]phenyl arsenic acid], for which, in the series on primary leukemic cells, the “cytotoxic activity” value is on record as “susceptible to the cytotoxic effects”. For the same compound, the IC50 with BT20 [1] is above 250 µM; in the series on NALM-6 [2] it was 7.3 µM; in the series on MOLT-3 [3] it was 12.1 µM; in the series on ALL1, 8.2 µM; in the series on RS4;11 it was 7.7 µM. For the same compound, the “Mean No. of Colonies/10^6 Cells” value in the series with MOLT-3 [4] (setting [8]) is recorded as 1230(968, 1492) Colonies/10^6 Cells; in the series with MOLT-3 [4] (setting [9]), 264(216, 312) Colonies/10^6 Cells; in the series on MOLT-3 [4] (setting [10]), 0 Colonies/10^6 Cells; in the series on MOLT-3 [4] (setting [11]) it was 0 Colonies/10^6 Cells; in the series on NALM-6 [5] (setting [12]) it was 3638(3260, 4016) Colonies/10^6 Cells; in the series on NALM-6 [5] (setting [13]), 61(24, 96) Colonies/10^6 Cells. The “Mean No. of Colonies/10^6 Cells” value in the series on NALM-6 [5] (setting [14]) and in the series with NALM-6 [5] (setting [15]) was 0 Colonies/10^6 Cells each time. The “% Inhibition” value came to 75% in the series with MOLT-3 [4] (setting [9]); 100% with MOLT-3 [4] (setting [10]); 100% in the series with MOLT-3 [4] (setting [11]); 13.7% in the series on NALM-6 [5] (setting [12]); 98.5% with NALM-6 [5] (setting [13]); 100% in the series on NALM-6 [5] (setting [14]). In the series on NALM-6 [5] (setting [15]), the “% Inhibition” value was found to be 100%.
`COc1cc2ncnc(Nc3ccccc3[As](=O)(O)O)c2cc1OC` [WHI-P378, 4-(2′-phenylarsenic acid)amino-6,7-dimethoxyquinazoline] returned a melting point above 300 °C. Further, the IC50 in the series with BT20 [1] is above 250 µM. Also, the IC50 with NALM-6 [2] is 46.6 µM. Also, in the series with MOLT-3 [3], the IC50 was found to be 67.3 µM. Further, the IC50 in the series on ALL1 was 128 µM. Besides, in the series with RS4;11, the IC50 was determined as 115 µM.

Usually melting point stands for the temperature of the solid-liquid transition. As usually defined, the % Inhibition is the share of the control response that was lost under treatment. Lower therefore signals a weak effect.
